Numbering of substitutions follows the chain as printed. “Also recorded” adds a separate entry of the source. Read-outs that look alike come from different tables or passages of the source.
Experiments:
rCHIKV mutants = assay: microbe, parasite or virus in culture; assay type: cell-based, Chikungunya virus; conditions: for Fold resistance: EC50 mutant/EC50 wt
[1] = target: host enzyme SAH hydrolase; design: method as in PMID 26010585; conditions: in vitro; read-out: 50% inhibitory concentration, SAH hydrolase; cited from earlier work
SINV = assay: CPE reduction assay, SINV; conditions: VeroE6 cells, MOI 0.025
CHIKV = assay: CPE reduction assay, CHIKV
VeroE6 cells = assay: Cytotoxicity in uninfected cells (MTS/PMS) of the CPE reduction assay
SFV = assay: CPE reduction assay, SFV
wt SFV nsP1 = target: T1, wt SFV nsP1 (Semliki forest virus, UniProt P08411); assay: nsP1 enzymatic activity assay (m7GMP-nsP1 intermediate formation), wt
T1 sequence (P08411 1-537): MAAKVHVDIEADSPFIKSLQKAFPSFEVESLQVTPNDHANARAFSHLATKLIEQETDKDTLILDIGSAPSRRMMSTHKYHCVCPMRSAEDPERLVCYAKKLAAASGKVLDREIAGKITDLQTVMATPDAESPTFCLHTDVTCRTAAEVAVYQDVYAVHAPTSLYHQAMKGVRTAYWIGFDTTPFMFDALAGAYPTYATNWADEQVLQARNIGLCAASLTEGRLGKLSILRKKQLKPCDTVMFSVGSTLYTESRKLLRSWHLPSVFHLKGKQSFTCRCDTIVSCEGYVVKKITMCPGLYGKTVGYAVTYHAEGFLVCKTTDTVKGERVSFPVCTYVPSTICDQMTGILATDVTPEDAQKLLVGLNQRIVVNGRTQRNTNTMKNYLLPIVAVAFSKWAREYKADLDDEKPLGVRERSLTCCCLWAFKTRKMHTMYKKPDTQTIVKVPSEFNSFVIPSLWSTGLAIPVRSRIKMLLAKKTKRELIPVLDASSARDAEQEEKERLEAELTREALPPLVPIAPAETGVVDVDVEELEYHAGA

SFV nsP1 K231R+K300E = target: T2, SFV nsP1 K231R+K300E (Semliki forest virus, UniProt P08411, K231R/K300E); assay type: biochemical; conditions: 0 to 1 mM, 10 μM SAM, normalized to untreated control
T2 sequence (P08411 1-537 K231R/K300E): T1 sequence (P08411 1-537) with K231R, K300E

[2] = Chikungunya virus, Vero C1008, read-out: Mean EC50 ± SD
[3] = Chikungunya virus, read-out: Mean EC50 ± SD
[4] = rCHIKV nsP1-G230R + nsP1-K299E + nsP3-*524R
[5] = rCHIKV nsP1-G230R + nsP1-K299E + nsP3-*524R, read-out: Mean EC50 ± SD
[6] = rCHIKV nsP1-G230R + nsP1-K299E, read-out: Mean EC50 ± SD
[7] = rCHIKV nsP1-R171Q, read-out: Mean EC50 ± SD

Compound	EC50 (rCHIKV mutants; [2]) [nM]	EC50 (rCHIKV mutants; [3]) [nM]	Fold resistance (rCHIKV mutants; [4])	EC50 (rCHIKV mutants; [5]) [nM]	Fold resistance (rCHIKV mutants; rCHIKV nsP1-G230R + nsP1-K299E)	EC50 (rCHIKV mutants; [6]) [nM]	Fold resistance (rCHIKV mutants; rCHIKV nsP1-R171Q)	EC50 (rCHIKV mutants; [7]) [nM]	also measured
6′-β-fluoro-homoaristeromycin [FHA]	–	–	–	–	–	–	–	–	Resistance of rCHIKV G230R+K299E to the compound (rCHIKV mutants; rCHIKV G230R+K299E): resistant; IC50 [1]: 370 nM; Protection against SINV infection (SINV): did not confer protection; SI (CHIKV) (CHIKV; CC50/EC50): >1,000; EC50 (CHIKV; read-out: EC50 (CHIKV), VeroE6 cells, MOI 0.005, MTS at 96 hpi, mean ± SD): 120 ± 40 nM; CC50 (VeroE6 cells; read-out: CC50 (CHIKV assay), CHIKV assay format): > 250000 nM; CC50 (VeroE6 cells; read-out: CC50 (SFV assay), SFV assay format): > 250000 nM; CC50 (VeroE6 cells; read-out: CC50 (SINV assay), SINV assay format): > 250000 nM; SI (SFV) (SFV; CC50/EC50): >64; EC50 (SFV; read-out: EC50 (SFV), VeroE6 cells, MOI 0.025, MTS at 40 hpi, mean ± SD): 3900 ± 3500 nM
COc1c(C)c2c(c(O)c1C/C=C(\C)CCC(=O)O)C(=O)OC2 [Mycophenolic acid, mycophenolic acid, reference compound]	400 ± 10	6300 ± 11400	1	500 ± 30	3	1100 ± 500	11	4200 ± 2800	–
Nc1ncnc2c1ncn2[C@@H]1O[C@H](CSCC[C@H](N)C(=O)O)[C@@H](O)[C@H]1O [SAH, S-adenosylhomocysteine, reference compound]	–	–	–	–	–	–	–	–	Inhibition of m7GMP-nsP1 formation, dose response (wt SFV nsP1; 0 to 1 mM, 10 μM SAM): inhibited in a dose-dependent manner; Inhibition of m7GMP-nsP1 formation (wt SFV nsP1; 1 mM, 100-fold molar excess over SAM (10 μM SAM)): fully inhibited; Inhibition of mutant compared to wt SFV nsP1 (SFV nsP1 K231R+K300E): inhibited by SAH to a similar extent; also recorded: inhibited by SAH to the same extent
O=c1cnn([C@@H]2O[C@H](CO)[C@@H](O)[C@H]2O)c(=O)[nH]1 [6-Azauridine, 6-azauridine, reference compound]	300 ± 10	8900 ± 3400	4	900 ± 100	4	1100 ± 100	3	800 ± 100	–
CCc1nc2c(nnn2-c2cccc(OC(C)C)c2)c(=O)[nH]1 [MADTP-372, reference compound]	–	–	–	–	–	–	–	–	Effect on formation of m7GMP-nsP1 intermediate (control compound) (wt SFV nsP1; 50 μM, 5 or 10 μM SAM): clearly inhibited the reaction

Source: publication PMC7179274, “6′-β-Fluoro-Homoaristeromycin and 6′-Fluoro-Homoneplanocin A Are Potent Inhibitors of Chikungunya Virus Replication through Their Direct Effect on Viral Nonstructural Protein 1” (Antimicrobial Agents and Chemotherapy, 2020)
